This passage reports binding and binding constant results from article PMC4787783 (2015).

The test system of experiment [1] is tRNA-Cys fragment (RNA, G4) GGGGGUAUAGCUCAGUGGUAGAGCAUUUGA
The experiment in a line: fluorescence enhancement.

Experiment [2] relates to HP18 (HP-18) (RNA, hairpin) CAGUACAGAUCUGUACUG
The experiment in a line: fluorescence enhancement. The settings on record: about 330-fold enhancement.

Experiment [3] has as its system VEGF (RNA, G4) GGAGGAGGGGGAGGAGGA
Nature of the experiment: fluorescence enhancement. The note with it: about 200-fold enhancement.

The subject of experiment [4] is tRNA-Ala fragment (RNA, G4) GGGGGUGUAGCUCAGUGGUAGAGCGCGUGC
Nature of the experiment: fluorescence enhancement.

Experiment [5] deals with Bulges-TB1 (RNA, G4) UUGUGGUGGGUGGGUGGGU
The experiment in a line: fluorescence enhancement.

Experiment [6] concerns ssAf17 (RNA, single strand) CUGAGUUGUAUAUAUUCG
The experiment in a line: fluorescence enhancement. The note with it: about 100-fold enhancement.

Experiment [7] relates to Spinach (RNA, aptamer) GCAGCCGGCUUGUUGAGUAGAGUGUGAGCUCCGUAACUGGUCGCGUC/GACGCGACCGAAUGAAAUGGUGAAGGACGGGUCCAGCCGGCUGC
Nature of the experiment: fluorescence enhancement.

For experiment [8], the system named is Tel22 (RNA, G4) AGGGUUAGGGUUAGGGUUAGGG
Nature of the experiment: fluorescence enhancement. The settings on record: about 290-fold enhancement.

Experiment [9] relates to TRF2 (RNA, G4) CGGGAGGGCGGGGAGGGC
The experiment in a line: fluorescence titration, 1:1 fit. The settings on record: 40 mM K+; 20 mM Tris-HCl pH 7.0, 25 °C; 2 µM CyT.

For experiment [10], the system named is Tel22-mut (RNA, single strand) AGUGUUAGUGUUAGUGUUAGUG
The experiment in a line: fluorescence enhancement. The settings on record: 40 mM K+; 20 mM Tris-HCl pH 7.0; 2 µM CyT, 4 µM RNA; very weak fluorescence.

Experiment [11] relates to Tel22 (RNA, G4) AGGGUUAGGGUUAGGGUUAGGG
Nature of the experiment: fluorescence titration, 1:1 fit. The note with it: 40 mM K+; 20 mM Tris-HCl pH 7.0, 25 °C; 2 µM CyT.

Experiment [12] has as its system ssAf22 (RNA, single strand) UGAGCUUAAUUGUAUAUAUUCG
Nature of the experiment: fluorescence titration, 1:1 fit. The settings on record: 40 mM K+; 20 mM Tris-HCl pH 7.0, 25 °C; 2 µM CyT.

The subject of experiment [13] is NRAS (RNA, G4) GGGAGGGGCGGGUCUGGG
Nature of the experiment: fluorescence titration, 1:1 fit. The note with it: 40 mM K+; 20 mM Tris-HCl pH 7.0, 25 °C; 2 µM CyT.

For experiment [14], the system named is 4-WJ (RNA, junction) GCGC/UUUAGC/GAGGUCCU/AGAA. Nature of the experiment: fluorescence enhancement. The note with it: 40 mM K+; 20 mM Tris-HCl pH 7.0; 2 µM CyT, 4 µM RNA; very weak fluorescence.
The test system of experiment [15] is ssAf17 (RNA, single strand) CUGAGUUGUAUAUAUUCG
Nature of the experiment: fluorescence titration, 1:1 fit. The settings on record: 40 mM K+; 20 mM Tris-HCl pH 7.0, 25 °C; 2 µM CyT.

Experiment [16] relates to VEGF (RNA, G4) GGAGGAGGGGGAGGAGGA
Nature of the experiment: fluorescence titration, 1:1 fit. The note with it: 40 mM K+; 20 mM Tris-HCl pH 7.0, 25 °C; 2 µM CyT.

Experiment [17] deals with dsNC (RNA, duplex) UUGUGCUACCAGGAGUCUG/CAGACUCCUGGUAGCACAA
The experiment in a line: fluorescence titration, 1:1 fit. The note with it: 40 mM K+; 20 mM Tris-HCl pH 7.0, 25 °C; 2 µM CyT.

Experiment [18] relates to NRAS-mut (RNA, single strand) GUGAGUUGCGUGUCUGUG
Nature of the experiment: fluorescence enhancement. The note with it: 40 mM K+; 20 mM Tris-HCl pH 7.0; 2 µM CyT, 4 µM RNA; very weak fluorescence.

The test system of experiment [19] is BCL-2 (RNA, G4) AGGGGGCCGUGGGGUGGGAGCUGGGG
The experiment in a line: fluorescence titration, 1:1 fit. The settings on record: 40 mM K+; 20 mM Tris-HCl pH 7.0, 25 °C; 2 µM CyT.

The test system of experiment [20] is HP18 (HP-18) (RNA, hairpin) CAGUACAGAUCUGUACUG
The experiment in a line: fluorescence titration, 1:1 fit. The settings on record: 40 mM K+; 20 mM Tris-HCl pH 7.0, 25 °C; 2 µM CyT.

Experiment [21] concerns 3-WJ (RNA, junction) AGCGCAACCCC/UCGUCAGCU/GGGACGACGU
Nature of the experiment: fluorescence enhancement. The note with it: 40 mM K+; 20 mM Tris-HCl pH 7.0; 2 µM CyT, 4 µM RNA; very weak fluorescence.

`CN1C(=Cc2cc[n+](C)c3ccccc23)Sc2ccccc21`: the binding result in experiment [1] (about 150-fold enhancement), in [2], in [3], in experiment [4] (about 230-fold enhancement), in experiment [5] (about 570-fold enhancement) and in [6] was “yes” in each case. In addition, the binding entry in experiment [7] (about 200-fold enhancement) and in experiment [8] was “yes” each time.

As for `CC(=Cc1sc2ccc3ccccc3c2[n+]1CCCS(=O)(=O)[O-])C=C1Sc2ccc3ccccc3c2N1CCCS(=O)(=O)O`, the binding constant entry is recorded as “(2.81 ± 0.63) × 10^5 M^-1” in experiment [9]; “(1.17 ± 0.37) × 10^5 M^-1” in experiment [11]; “(4.03 ± 0.36) × 10^4 M^-1” in [12]; “(3.49 ± 0.77) × 10^5 M^-1” in experiment [13]; “(4.40 ± 0.38) × 10^4 M^-1” in experiment [15]; “(1.44 ± 0.29) × 10^5 M^-1” in experiment [16]. Besides, the figures for the binding constant entry in experiment [17], in experiment [19] and in [20] were “(2.42 ± 0.25) × 10^4 M^-1”, “(1.94 ± 0.29) × 10^5 M^-1” and “(2.89 ± 0.28) × 10^4 M^-1”, respectively. Moreover, the binding entry in [1] (40 mM K+, 20 mM Tris-HCl pH 7.0, 2 µM CyT, 4 µM RNA, about 205-fold enhancement) is “yes”; in [10], “weak”; in [14] it was “weak”; in [4] (40 mM K+, 20 mM Tris-HCl pH 7.0, 2 µM CyT, 4 µM RNA, about 200-fold enhancement) it was “yes”; in experiment [18] it was “weak”; in [5] (40 mM K+, 20 mM Tris-HCl pH 7.0, 2 µM CyT, 4 µM RNA, about 1800-fold enhancement) it was “yes”. Besides, the binding result in experiment [21] is listed as “weak”; in experiment [7] (40 mM K+, 20 mM Tris-HCl pH 7.0, 2 µM CyT, 4 µM RNA, about 327-fold enhancement) it was “yes”.
